Data reported in US5708174A, “Heterocyclic-esters or -amides used as 5-HT4 receptor antagonists” (SmithKline Beecham p.l.c., priority 1992, dated 1998).
Counter-ions that a name gives are not always drawn.

Tested on: 5-HT4 receptor
Test: Guinea pig colon 5-HT4 receptor antagonist activity (longitudinal muscle-myenteric plexus, 5-HT-evoked contraction)
Format: cell-based
Conditions: guinea-pig distal colon longitudinal muscle-myenteric plexus; contraction evoked by 5-HT
Procedure: 5-HT4 RECEPTOR ANTAGONIST ACTIVITY
Male guinea-pigs, weighing 250-400 g are used. Longitudinal muscle-myenteric plexus preparations, approximately 3 cm long, are obtained from the distal colon region. These are suspended under a 0.5 g load in isolated tissue baths containing Krebs solution bubbled with 5% CO2 in O2 and maintained at 37° C. In all experiments, the Krebs solution also contains methiothepin 10^-7 M and granisetron 10^-6 M to block effects at 5-HT1, 5-HT2 and 5-HT3 receptors.
After construction of a simple concentration-response curve with 5-HT, using 30s contact times and a 15 min dosing cycle, a concentration of 5-HT is selected so as to obtain a contraction of the muscle approximately 40-70% maximum(10^-9 M approx). The tissue is then alternately dosed every 15 min with this concentration of 5-HT and then with an approximately equi-effective concentration of the nicotine receptor stimulant, dimethylphenylpiperazinium (DMPP). After obtaining consistent responses to both 5-HT and DMPP, increasing concentrations of a putative 5-HT4 receptor antagonist are then added to the bathing solution. The effects of this compound are then determined as a percentage reduction of the contractions evoked by 5-HT or by DMPP. […] A compound which reduces the response to 5-HT but not to DMPP is believed to act as a 5-HT4 receptor antagonist.

5-HT4 receptor antagonist activity (in words): particularly good activity
SMILES: CCCCN1CCC(COC(=O)c2cccc3cccnc23)CC1 [Example 1-2, (1-Butyl-4-piperidinylmethyl)quinolinyl-8-carboxylate hydrochloride]
